Earlier results, collected in PubChem BioAssay AID1259410 (Chemical Carcinogenesis Research Information System (CCRIS), 2018).

Tested on: rodent tumor promotion studies, tumor incidence
Test: CCRIS tumor promotion studies
[1] = Carcinogen: 7,12-DIMETHYLBENZ(A)ANTHRACENE, Doses [Carcinogen]: TOP, Route [Carcinogen]: DERMAL, Route [Promoter]: DERMAL, Species: MOUSE, Strain/Sex: MALE,FEMALE

In the case of `CC1=C(/C=C/C(C)=C/C=C/C(C)=C\C(=O)O)C(C)(C)CCC1`, the outcome (Carcinogen: ETHYLNITROSOUREA [759-73-9], Doses [Carcinogen]: 120 UG/KG ONCE, Doses [Promoter]: 200 MG/KG FEED FOR 60 WK (STUDY DURATION: 60 WK), Route [Carcinogen]: IP INJECTION, Route [Promoter]: DIET, Species: MOUSE, Strain/Sex: B6C3F1/MALE (?,44)/(?,35)) is given as “liver: hepatocellular carcinoma”.

For `C=CCc1ccc(O)c(OC)c1`, the outcome (Carcinogen: 1,2-DIMETHYLHYDRAZINE, 57-14-7 1-METHYL-1-NITROSOUREA, 684-93-5, Carcinogen: 1,2-DIMETHYLHYDRAZINE, 57-14-7 1-METHYL-1-NITROSOUREA, 684-93-5, Doses [Carcinogen]: 40 MG/KG 1,2-DIMETHYLHYDRAZINE IN 0.9% NACL SUBCUTANEOUS 3/WK IN FIRST WK FOLLOWED BY 20 MG 1-METHYL-1-NITROSOUREA/5 ML, Doses [Promoter]: 0, 0.8% IN DIET FOR 48 WK ADMINISTERED 1 WK POST CARCINOGEN DOSE (STUDY DURATION: 52 WK), Route [Carcinogen]: SUBCUTANEOUS, INTRAPERITONEAL, Route [Promoter]: ORAL, Species: RAT, Strain/Sex: F344/MALE) is listed as “forestomach: papilloma”.

In the case of `CC(=O)Nc1ccc2c(c1)Cc1ccccc1-2`, the outcome (Carcinogen: DIETHYLNITROSAMINE, 55-18-5, Doses [Carcinogen]: 50 MG/KG ONCE 24 HR AFTER 2/3 PARTIAL HEPATECTOMY, Doses [Promoter]: 0, 0.02% IN DIET FOR 1 MO BEGINNING 1 WK POST CARCINOGEN DOSE (STUDY DURATION: 8 MO), Route [Carcinogen]: INTRAPERITONEAL, Route [Promoter]: ORAL, Species: RAT, Strain/Sex: WISTAR/MALE) is listed as “liver: carcinoma” and the outcome (Carcinogen: DIETHYLNITROSAMINE, 55-18-5, Doses [Carcinogen]: 200 MG/KG BW IN 0.9% SALINE ONCE, Doses [Promoter]: 0, 0.05 MMOL/KG BW IN POLYETHYLENE GLYCOL FOR 5 D BEGINNING 1 WK POST CARCINOGEN DOSE, 70% PARTIAL HEPATECTOMY PERFORMED, Route [Carcinogen]: INTRAPERITONEAL, Route [Promoter]: GAVAGE, Species: RAT, Strain/Sex: SPRAGUE-DAWLEY/MALE) is listed as “liver: hepatocellular carcinoma”.

In the case of `CC/C(=C(/CC)c1ccc(O)cc1)c1ccc(O)cc1`, the outcome (Carcinogen: IRRADIATION, Doses [Carcinogen]: 260 CGY GAMMA RAYS AT DAY 20 OF PREGNANCY, Doses [Promoter]: 0, 0.376 UG/D RELEASED FROM PELLET IMPLANTED AFTER NURSING DISCONTINUED, PELLET REPLACED EVERY 8 WK (STUDY DURATION: 1 Y, Route [Carcinogen]: DERMAL, Route [Promoter]: IMPLANT, Species: RAT, Strain/Sex: WISTAR/FEMALE) is given as “mammary gland: tumor”, the outcome (Carcinogen: Sodium arsenite, 7781-46-5, Doses [Carcinogen]: 0, 85 ppm to dams on gestational days 8-18, Doses [Promoter]: 2 ug on days 1, 2, 3, 4, and 5 of life, study duration for pups 90 wks, Route [Carcinogen]: Drinking water, days 8-18 of gestation (dams), Route [Promoter]: Subcutaneous (to offspring), Species: Mouse, Strain/Sex: C3H/HeNCr, (25 Male and female offspring/Group of dams exposed to sodium arsenite)) is given as “males: urinary bladder: tumors, liver: tumors females: urogenital tumors” and the outcome (Carcinogen: URETHANE, 51-79-6, Doses [Carcinogen]: 500 MG/KG BW ONCE (STUDY DURATION: 19 WK), Doses [Promoter]: 5 MG/KG BW 1X/WK FOR 18 WK BEGINNING 1 WK POST LAST CARCINOGEN DOSE (STUDY DURATION: 19 WK), Route [Carcinogen]: INTRAPERITONEAL, Route [Promoter]: INTRAMUSCULAR, Species: MOUSE, Strain/Sex: KUNMING/FEMALE) is given as “liver: tumor”.

For `CCCCCCCCCCCCCC(=O)OCC1=C[C@H]2C3C(C)(C)C3(OC(C)=O)[C@H](OC(=O)CCCCCCCCCCCCC)[C@@H](C)[C@]2(O)[C@@H]2C=C(C)C(=O)[C@]2(O)C1` (some centres undefined), the outcome (Carcinogen: 7,12-DIMETHYLBENZ[A]ANTHRACENE, 57-97-6, Doses [Carcinogen]: 100 NMOL ONCE, Doses [Promoter]: 0, 50, 100, 200 NMOL 2/WK FOR 24 WK BEGINNING 1 WK POST CARCINOGEN DOSE (STUDY DURATION: 25 WK), Doses [Promoter]: 0, 50, 100, 200 NMOL 2/WK FOR 24 WK BEGINNING 1 WK POST CARCINOGEN DOSE (STUDY DURATION: 25 WK), Route [Carcinogen]: DERMAL, Route [Promoter]: DERMAL, Species: MOUSE, Strain/Sex: NMRI/FEMALE) is given as “skin: tumor”.

In the case of `O=C(OO)c1cccc(Cl)c1`, the outcome (Carcinogen: 7,12-DIMETHYLBENZ(A)ANTHRACENE, Doses [Carcinogen]: TOP, Route [Carcinogen]: DERMAL, Route [Promoter]: DERMAL, Species: MOUSE, Strain/Sex: FEMALE) is given as “integumentary system (skin)”.

For `O=S(=O)(O)NC1CCCCC1`, the outcome (Carcinogen: METHYLNITROSOUREA, Doses [Carcinogen]: BLADDER IMP, Doses [Promoter]: IN DIET, Route [Carcinogen]: BLADDER IMPLANT, Route [Promoter]: ORAL, Species: RAT, Strain/Sex: WISTAR/FEMALE) is given as “urinary bladder”.

In the case of `CC1(OO)C=C(C(C)(C)C)C(=O)C(C(C)(C)C)=C1`, the outcome (Carcinogen: 7,12-DIMETHYLBENZ[A]ANTHRACENE, 57-97-6, Doses [Carcinogen]: 20 NMOL IN 200 µL ACETONE ONCE, Doses [Promoter]: 0, 8 UMOL 2/WK FOR 50 WK BEGINNING 10 D POST CARCINOGEN DOSE (STUDY DURATION: 52 WK), Route [Carcinogen]: DERMAL, Route [Promoter]: DERMAL, Species: MOUSE, Strain/Sex: SENCAR/FEMALE) is given as “skin: papilloma or carcinoma” and the outcome (Carcinogen: 7,12-DIMETHYLBENZ[A]ANTHRACENE, 57-97-6, Doses [Carcinogen]: 20 NMOL IN 200 µL ACETONE ONCE, Doses [Promoter]: 0, 20 UMOL 2/WK FOR 50 WK BEGINNING 10 D POST CARCINOGEN DOSE (STUDY DURATION: 52 WK), Route [Carcinogen]: DERMAL, Route [Promoter]: DERMAL, Species: MOUSE, Strain/Sex: SENCAR/FEMALE) is given as “skin: papilloma or carcinoma”.

For `CCCCCCCC/C=C\CCCCCCCC(=O)O`, the outcome [1] is listed as “integumentary system (skin)”.

In the case of `O=[N+]([O-])c1ccc2ccc3cccc4ccc1c2c34`, the outcome (Carcinogen: POLYCHLORINATED BIPHENYLS, 1336-36-3, Doses [Carcinogen]: 2.5 MG/KG ONCE, Doses [Promoter]: 0, 1575 MG/KG IN DMSO ADMINISTERED IN 17 DOSES 3/WK BEGINNING POST CARCINOGEN TREATMENT (STUDY DURATION: 18 WK), Route [Carcinogen]: INTRAPERITONEAL, Route [Promoter]: INTRAPERITONEAL, Species: MOUSE, Strain/Sex: A/J/MALE) is given as “lung: adenoma and adenocarcinoma”.

In the case of `C=C(C)[C@]12C[C@@H](C)[C@@]34O[C@](CCCCCCCCC)(O[C@@H]1[C@@H]3[C@@H]1O[C@]1(CO)[C@@H](O)[C@]1(O)C(=O)C(C)=C[C@H]14)O2`, the outcome (Carcinogen: 7,12-DIMETHYLBENZ(A)ANTHRACENE, Doses [Carcinogen]: 100 NMOL ONCE, Doses [Promoter]: 10, 20 NMOL 2/WK FOR 24 WK, Route [Carcinogen]: DERMAL, Route [Promoter]: DERMAL, Species: MOUSE, Strain/Sex: NMRI/FEMALE) is given as “integumentary system (skin): tumor (nos)”.

In the case of `CC[C@H](C)[C@H](NC(=O)[C@H](Cc1cnc[nH]1)NC(=O)[C@H](CCSC)NC(=O)[C@H](CS)NC(=O)[C@@H](NC(=O)CNC(=O)CNC(=O)[C@H](CC(N)=O)NC(=O)[C@H](CC(C)C)NC(=O)[C@H](CS)NC(=O)[C@H](Cc1ccc(O)cc1)NC(=O)CNC(=O)[C@H](CC(=O)O)NC(=O)[C@H](Cc1ccc(O)cc1)NC(=O)[C@H](CO)NC(=O)[C@H](CO)NC(=O)[C@@H]1CCCN1C(=O)[C@H](CS)NC(=O)CNC(=O)[C@@H]1CCCN1C(=O)[C@H](Cc1ccc(O)cc1)NC(=O)[C@H](CO)NC(=O)[C@@H](N)CC(N)=O)C(C)C)C(=O)N[C@@H](CCC(=O)O)C(=O)N[C@@H](CO)C(=O)N[C@@H](CC(C)C)C(=O)N[C@@H](CC(=O)O)C(=O)N[C@@H](CO)C(=O)N[C@@H](Cc1ccc(O)cc1)C(=O)N[C@H](C(=O)N[C@@H](CS)C(=O)N[C@@H](CC(N)=O)C(=O)N[C@@H](CS)C(=O)N[C@H](C(=O)N[C@H](C(=O)NCC(=O)N[C@@H](Cc1ccc(O)cc1)C(=O)N[C@@H](CO)C(=O)NCC(=O)N[C@@H](CC(=O)O)C(=O)N[C@@H](CCCNC(=N)N)C(=O)N[C@@H](CS)C(=O)N[C@@H](CCC(N)=O)C(=O)N[C@H](C(=O)N[C@@H](CCCNC(=N)N)C(=O)N[C@@H](CC(=O)O)C(=O)N[C@@H](CC(C)C)C(=O)N[C@@H](CCCNC(=N)N)C(=O)N[C@@H](Cc1c[nH]c2ccccc12)C(=O)N[C@@H](Cc1c[nH]c2ccccc12)C(=O)N[C@@H](CCC(=O)O)C(=O)N[C@@H](CC(C)C)C(=O)N[C@@H](CCCNC(=N)N)C(=O)O)[C@@H](C)O)[C@@H](C)CC)C(C)C)[C@@H](C)O`, the outcome (Carcinogen: 7,12-DIMETHYLBENZ[A]ANTHRACENE, 57-97-6, Doses [Carcinogen]: 0.5% IN ACETONE/HEAVY MINERAL OIL APPLIED TO BOTH CHEEK POUCHES 3/WK FOR 6 WK, Doses [Promoter]: 0, 10 UG/KG BW 3/WK FOR 6 WK BEGINNING 1 WK POST A SIALOADENECTOMY OR SHAM OPERATION AND 2 WK POST CARCINOGEN TREATMENT, Route [Carcinogen]: MUCOUS MEMBRANE, Route [Promoter]: MUCOUS MEMBRANE, Species: HAMSTER, Strain/Sex: SYRIAN/MALE) is listed as “cheek pouch: tumor; forestomach: tumor”.

For `CCCCCCCCCCCCCCCCCCCC`, the outcome [1] is listed as “integumentary system (skin)”.

In the case of `CN(C)CCOc1ccc(/C(=C(/CCCl)c2ccccc2)c2ccccc2)cc1`, the outcome (Carcinogen: DIETHYLNITROSAMINE, 55-18-5, Doses [Carcinogen]: 2.5 UG/G BW IN SALINE ONCE, Doses [Promoter]: 0, 0.5-1 MG IN PELLET IMPLANTED 1/MONTH FOR 30 WK BEGINNING 30 D POST CARCINOGEN TREATMENT (STUDY DURATION: 240 D), Route [Carcinogen]: INTRAPERITIONEAL, Route [Promoter]: SUBCUTANEOUS, Species: MOUSE, Strain/Sex: B6C3F1/FEMALE) is listed as “liver: tumor”.

For `CN=C(NC#N)NCCSCc1nc[nH]c1C`, the outcome (Carcinogen: 1,2-DIMETHYLHYDRAZINE, 540-73-8, Doses [Carcinogen]: 30 MG/KG BW 1/WK FOR 5 WK, Doses [Promoter]: 0, 500 MG/L IN DRINKING WATER BEGINNING 4 D POST LAST CARCINOGEN DOSE (STUDY DURATION: 6 MO), Route [Carcinogen]: GAVAGE, Route [Promoter]: ORAL, Species: RAT, Strain/Sex: SPRAGUE-DAWLEY/MALE) is listed as “intestine: tumor”.
